Results as given in PubChem BioAssay AID2060902 (Molecular Pharmacology Branch, DTP, NCI, 2025).

Test system: 485368-065-R3-J5-PDC spheroids with HUVEC/MSC, viability
Test: Anticancer human tumor 485368-065-R3-J5-PDC patient-derived pancreatic carcinoma cell line growth inhibition [RAS]
Settings: for viability, T/C: stronger effect = lower value
Method in brief: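 Multi-cell-type spheroids: tumor cells plus HUVEC endothelial cells and mesenchymal stem cells. RAS-pathway inhibitors were combined with targeted agents, each dosed in half-log steps down from clinical Cmax, or from 10 microM when Cmax was unknown.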

[1] = curve of first compound, second compound 0.0316 µM
[2] = curve of first compound, second compound 0.1 µM
[3] = curve of first compound, second compound 0.316 µM
[4] = curve of first compound, second compound 1 µM
[5] = curve of first compound, second compound 3.16 µM
[6] = curve of first compound, second compound 10 µM
[7] = second compound 0.0316 µM, first compound 0.0316 µM
[8] = second compound 0.0316 µM, first compound 0.1 µM
[9] = second compound 0.0316 µM, first compound 0.316 µM
[10] = second compound 0.0316 µM, first compound 1 µM
[11] = second compound 0.1 µM, first compound 0.0316 µM
[12] = second compound 0.1 µM, first compound 0.1 µM
[13] = second compound 0.1 µM, first compound 0.316 µM
[14] = second compound 0.1 µM, first compound 1 µM
[15] = second compound 0.316 µM, first compound 0.0316 µM
[16] = second compound 0.316 µM, first compound 0.1 µM
[17] = second compound 0.316 µM, first compound 0.316 µM
[18] = second compound 0.316 µM, first compound 1 µM
[19] = second compound 1 µM, first compound 0.0316 µM
[20] = second compound 1 µM, first compound 0.1 µM
[21] = second compound 1 µM, first compound 0.316 µM
[22] = second compound 1 µM, first compound 1 µM
[23] = second compound 3.16 µM, first compound 0.0316 µM
[24] = second compound 3.16 µM, first compound 0.1 µM
[25] = second compound 3.16 µM, first compound 0.316 µM
[26] = second compound 3.16 µM, first compound 1 µM
[27] = second compound 10 µM, first compound 0.0316 µM
[28] = second compound 10 µM, first compound 0.1 µM
[29] = second compound 10 µM, first compound 0.316 µM
[30] = second compound 10 µM, first compound 1 µM
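Further: spheroids exposed to agents for seven days before readout.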

C=CC(=O)Nc1cc(Nc2nccc(-c3cn(C)c4ccccc34)n2)c(OC)cc1N(C)CCN(C)C + C#Cc1c(F)ccc2cc(O)cc(-c3ncc4c(N5CC6CCC(C5)N6)nc(OCC56CCCN5CC(F)C6)nc4c3F)c12
IC50 [1]: > 1000 nM
IC50 [2]: > 1000 nM
IC50 [3]: > 1000 nM
IC50 [4]: > 1000 nM
IC50 [5]: > 1000 nM
IC50 [6]: < 3.16 nM
viability, T/C (second compound 0.0316 µM, first compound 0.00316 µM): 103%
viability, T/C (second compound 0.0316 µM, first compound 0.01 µM): 101%
viability, T/C [7]: 106%
viability, T/C [8]: 104%
viability, T/C [9]: 101%
viability, T/C [10]: 89.7%
viability, T/C (second compound 0.1 µM, first compound 0.00316 µM): 97%
viability, T/C (second compound 0.1 µM, first compound 0.01 µM): 95.8%
viability, T/C [11]: 95.8%
viability, T/C [12]: 108%
viability, T/C [13]: 108%
viability, T/C [14]: 96.2%
viability, T/C (second compound 0.316 µM, first compound 0.00316 µM): 107%
viability, T/C (second compound 0.316 µM, first compound 0.01 µM): 97.3%
viability, T/C [15]: 96.1%
viability, T/C [16]: 103%
viability, T/C [17]: 101%
viability, T/C [18]: 85.5%
viability, T/C (second compound 1 µM, first compound 0.00316 µM): 106%
viability, T/C (second compound 1 µM, first compound 0.01 µM): 98.9%
viability, T/C [19]: 100%
viability, T/C [20]: 97.3%
viability, T/C [21]: 83.3%
viability, T/C [22]: 74.6%
viability, T/C (second compound 3.16 µM, first compound 0.00316 µM): 78%
viability, T/C (second compound 3.16 µM, first compound 0.01 µM): 83.6%
viability, T/C [23]: 72.4%
viability, T/C [24]: 67.6%
viability, T/C [25]: 63.3%
viability, T/C [26]: 49.8%
viability, T/C (second compound 10 µM, first compound 0.00316 µM): 48%
viability, T/C (second compound 10 µM, first compound 0.01 µM): 43.7%
viability, T/C [27]: 37%
viability, T/C [28]: 37.3%
viability, T/C [29]: 28.6%
viability, T/C [30]: 30.1%

Cc1nc(N2CCC3(CC2)COC(C)C3N)c(CO)nc1Sc1ccnc(N)c1Cl (stereo not drawn) + C#Cc1c(F)ccc2cc(O)cc(-c3ncc4c(N5CC6CCC(C5)N6)nc(OCC56CCCN5CC(F)C6)nc4c3F)c12
IC50 [1]: > 10000 nM
IC50 [2]: > 10000 nM
IC50 [3]: 1910 nM
IC50 [4]: 821 nM
IC50 [5]: 106 nM
IC50 [6]: < 31.6 nM
viability, T/C [7]: 98.3%
viability, T/C [8]: 88.5%
viability, T/C [9]: 87.3%
viability, T/C [10]: 75.1%
viability, T/C (second compound 0.0316 µM, first compound 3.16 µM): 60%
viability, T/C (second compound 0.0316 µM, first compound 10 µM): 58.8%
viability, T/C [11]: 110%
viability, T/C [12]: 92.3%
viability, T/C [13]: 74%
viability, T/C [14]: 62.7%
viability, T/C (second compound 0.1 µM, first compound 3.16 µM): 63.6%
viability, T/C (second compound 0.1 µM, first compound 10 µM): 51.8%
viability, T/C [15]: 101%
viability, T/C [16]: 89.6%
viability, T/C [17]: 78.5%
viability, T/C [18]: 52.4%
viability, T/C (second compound 0.316 µM, first compound 3.16 µM): 47.5%
viability, T/C (second compound 0.316 µM, first compound 10 µM): 44%
viability, T/C [19]: 91.5%
viability, T/C [20]: 77.2%
viability, T/C [21]: 56.7%
viability, T/C [22]: 47.6%
viability, T/C (second compound 1 µM, first compound 3.16 µM): 42.2%
viability, T/C (second compound 1 µM, first compound 10 µM): 30%
viability, T/C [23]: 65.9%
viability, T/C [24]: 49.7%
viability, T/C [25]: 39.1%
viability, T/C [26]: 31.9%
viability, T/C (second compound 3.16 µM, first compound 3.16 µM): 24.7%
viability, T/C (second compound 3.16 µM, first compound 10 µM): 21.6%
viability, T/C [27]: 36.3%
viability, T/C [28]: 29.7%
viability, T/C [29]: 24.3%
viability, T/C [30]: 19.9%
viability, T/C (second compound 10 µM, first compound 3.16 µM): 19.7%
viability, T/C (second compound 10 µM, first compound 10 µM): 12.8%

CCc1c2c(nc3ccc(O)cc13)-c1cc3c(c(=O)n1C2)COC(=O)[C@]3(O)CC
viability, T/C (compound 0.000949 µM): 86.9% [middle of 4 runs]
viability, T/C (compound 0.003 µM): 34.5% [middle of 4 runs]
viability, T/C (compound 0.00949 µM): 14.6% [middle of 4 runs]
viability, T/C (compound 0.03 µM): 7.01% [middle of 4 runs]
viability, T/C (compound 0.0949 µM): 4.37% [middle of 4 runs]
viability, T/C (compound 0.3 µM): 3.18% [middle of 4 runs]
IC50 (curve of compound): 2.19 nM [middle of 4 runs]

CCC(CC)c1cc(NC2CCC(N)C2)n2nccc2n1 (stereo not drawn) + CCn1c(-c2cc(N3CCN(C)CC3)cnc2C(C)OC)c2c3cc(ccc31)-c1csc(n1)CC(NC(=O)C1CC1C)C(=O)N1CCCC(N1)C(=O)OCC(C)(C)C2
IC50 (curve of first compound, second compound 0.000949 µM): 1050 nM
IC50 (curve of first compound, second compound 0.003 µM): < 31.6 nM
IC50 (curve of first compound, second compound 0.00949 µM): < 31.6 nM
IC50 (curve of first compound, second compound 0.03 µM): < 31.6 nM
IC50 (curve of first compound, second compound 0.0949 µM): < 31.6 nM
IC50 (curve of first compound, second compound 0.3 µM): < 31.6 nM
viability, T/C (second compound 0.000949 µM, first compound 0.0316 µM): 42%
viability, T/C (second compound 0.000949 µM, first compound 0.1 µM): 36.8%
viability, T/C (second compound 0.000949 µM, first compound 0.316 µM): 56.3%
viability, T/C (second compound 0.000949 µM, first compound 1 µM): 72.7%
viability, T/C (second compound 0.000949 µM, first compound 3.16 µM): 3.44%
viability, T/C (second compound 0.000949 µM, first compound 10 µM): 5.24%
viability, T/C (second compound 0.003 µM, first compound 0.0316 µM): 23.8%
viability, T/C (second compound 0.003 µM, first compound 0.1 µM): 24.9%
viability, T/C (second compound 0.003 µM, first compound 0.316 µM): 32.9%
viability, T/C (second compound 0.003 µM, first compound 1 µM): 38.9%
viability, T/C (second compound 0.003 µM, first compound 3.16 µM): 3.26%
viability, T/C (second compound 0.003 µM, first compound 10 µM): 6.21%
viability, T/C (second compound 0.00949 µM, first compound 0.0316 µM): 15.9%
viability, T/C (second compound 0.00949 µM, first compound 0.1 µM): 21.2%
viability, T/C (second compound 0.00949 µM, first compound 0.316 µM): 23.5%
viability, T/C (second compound 0.00949 µM, first compound 1 µM): 35.6%
viability, T/C (second compound 0.00949 µM, first compound 3.16 µM): 2.54%
viability, T/C (second compound 0.00949 µM, first compound 10 µM): 5.71%
viability, T/C (second compound 0.03 µM, first compound 0.0316 µM): 14.5%
viability, T/C (second compound 0.03 µM, first compound 0.1 µM): 14.5%
viability, T/C (second compound 0.03 µM, first compound 0.316 µM): 20.1%
viability, T/C (second compound 0.03 µM, first compound 1 µM): 30.4%
viability, T/C (second compound 0.03 µM, first compound 3.16 µM): 2.68%
viability, T/C (second compound 0.03 µM, first compound 10 µM): 6.01%
viability, T/C (second compound 0.0949 µM, first compound 0.0316 µM): 8.49%
viability, T/C (second compound 0.0949 µM, first compound 0.1 µM): 11.9%
viability, T/C (second compound 0.0949 µM, first compound 0.316 µM): 15.1%
viability, T/C (second compound 0.0949 µM, first compound 1 µM): 30.3%
viability, T/C (second compound 0.0949 µM, first compound 3.16 µM): 3.16%
viability, T/C (second compound 0.0949 µM, first compound 10 µM): 6.24%
viability, T/C (second compound 0.3 µM, first compound 0.0316 µM): 8.25%
viability, T/C (second compound 0.3 µM, first compound 0.1 µM): 12.6%
viability, T/C (second compound 0.3 µM, first compound 0.316 µM): 14.8%
viability, T/C (second compound 0.3 µM, first compound 1 µM): 25.4%
viability, T/C (second compound 0.3 µM, first compound 3.16 µM): 2.42%
viability, T/C (second compound 0.3 µM, first compound 10 µM): 4.74%
